# In PubChem BioAssay AID1259407 (Chemical Carcinogenesis Research Information System (CCRIS), 2018):
# The source made the active and inactive calls. The rule behind the calls is not given here.
# Tested on: CCRIS mutagenicity, Ames/micronucleus/aberration tests
# Test: CCRIS mutagenicity studies
# [1] = Test System: AMES SALMONELLA TYPHIMURIUM, Strain/Indicator: TA100, Metabolic Activation: NONE, Method: PREINCUBATION
# [2] = Test System: AMES SALMONELLA TYPHIMURIUM, Strain/Indicator: TA100, Metabolic Activation: NONE, Method: STANDARD PLATE
structure (smiles),measurement,setting,value
OC1C=CC=CC1O (stereo unspecified),mutagenic call,"Test System: AMES SALMONELLA TYPHIMURIUM, Strain/Indicator: TA98, Metabolic Activation: NONE, Method: STANDARD PLATE",inactive; negative
same,mutagenic call,"Test System: AMES SALMONELLA TYPHIMURIUM, Strain/Indicator: TA98, Metabolic Activation: RAT, LIVER, S-9, PHENOBARBITAL, Method: STANDARD PLATE",inactive; negative
same,mutagenic call,[1],inactive; negative
same,mutagenic call,[2],inactive; negative
same,mutagenic call,"Test System: AMES SALMONELLA TYPHIMURIUM, Strain/Indicator: TA100, Metabolic Activation: RAT, LIVER, S-9, PHENOBARBITAL, Method: PREINCUBATION",active; positive
same,mutagenic call,"Test System: AMES SALMONELLA TYPHIMURIUM, Strain/Indicator: TA100, Metabolic Activation: RAT, LIVER, S-9, PHENOBARBITAL, Method: STANDARD PLATE",active; positive
same,mutagenic call,"Test System: AMES SALMONELLA TYPHIMURIUM, Strain/Indicator: TM677/8-AZAGUANINE, Metabolic Activation: NONE, Method: PREINCUBATION",inactive; negative
same,mutagenic call,"Test System: AMES SALMONELLA TYPHIMURIUM, Strain/Indicator: TM677/8-AZAGUANINE, Metabolic Activation: NONE, Method: STANDARD PLATE",active; positive
same,mutagenic call,"Test System: AMES SALMONELLA TYPHIMURIUM, Strain/Indicator: TM677/8-AZAGUANINE, Metabolic Activation: RAT, LIVER, S-9, PHENOBARBITAL, Method: PREINCUBATION",active; positive
NC(CO)Cc1cnc[nH]1 (stereo unspecified),mutagenic call,"Test System: MOUSE LYMPHOMA, Strain/Indicator: L5178Y (TK+/TK-), Metabolic Activation: NONE, Method: SUSPENSION/PLATE",inactive; negative. reevaluation of results: negative
same,mutagenic call,"Test System: MOUSE LYMPHOMA, Strain/Indicator: L5178Y (TK+/TK-), Metabolic Activation: RAT, LIVER, S-9, AROCLOR 1254, Method: SUSPENSION/PLATE",inactive; negative. reevaluation of results: negative
Cc1c2c(c(CO)c3ccc4ccccc4c13)[C@H](O)[C@@H](O)C=C2,mutagenic call,"Test System: CHINESE HAMSTER V-79, Strain/Indicator: V-79/6-THIOGUANINE, Metabolic Activation: CELL-MEDIATED, Method: STANDARD PLATE",active; positive
same,mutagenic call,"Test System: CHINESE HAMSTER V-79, Strain/Indicator: V-79/OUABAIN, Metabolic Activation: CELL-MEDIATED, Method: STANDARD PLATE",active; positive
OCC(O)C1CO1 (stereo unspecified),mutagenic call,"End Point: IN VIVO MICRONUCLEUS, Test System: SPERMATID, Species: RAT, Strain/Sex: SPRAGUE-DAWLEY/MALE, Route: IP INJECTION",active; positive
same,mutagenic call,[2],active; positive
same,mutagenic call,"Test System: AMES SALMONELLA TYPHIMURIUM, Strain/Indicator: TA100, Metabolic Activation: RAT, LIVER, S-9, AROCLOR 1254, Method: STANDARD PLATE",active; positive
N#CC(O)c1ccccc1 (stereo unspecified),mutagenic call,"Test System: AMES SALMONELLA TYPHIMURIUM, Strain/Indicator: TA97, Metabolic Activation: HAMSTER, LIVER, S-9, AROCLOR 1254 (10%), Method: PREINCUBATION",inactive; negative
same,mutagenic call,"Test System: AMES SALMONELLA TYPHIMURIUM, Strain/Indicator: TA97, Metabolic Activation: HAMSTER, LIVER, S-9, AROCLOR 1254 (30%), Method: PREINCUBATION",inactive; negative
same,mutagenic call,"Test System: AMES SALMONELLA TYPHIMURIUM, Strain/Indicator: TA97, Metabolic Activation: NONE, Method: PREINCUBATION",inactive; negative
same,mutagenic call,"Test System: AMES SALMONELLA TYPHIMURIUM, Strain/Indicator: TA97, Metabolic Activation: RAT, LIVER, S-9, AROCLOR 1254 (10%), Method: PREINCUBATION",inactive; negative
same,mutagenic call,"Test System: AMES SALMONELLA TYPHIMURIUM, Strain/Indicator: TA97, Metabolic Activation: RAT, LIVER, S-9, AROCLOR 1254 (30%), Method: PREINCUBATION",inactive; negative
same,mutagenic call,"Test System: AMES SALMONELLA TYPHIMURIUM, Strain/Indicator: TA98, Metabolic Activation: HAMSTER, LIVER, S-9, AROCLOR 1254 (10%), Method: PREINCUBATION",inactive; negative
same,mutagenic call,"Test System: AMES SALMONELLA TYPHIMURIUM, Strain/Indicator: TA98, Metabolic Activation: HAMSTER, LIVER, S-9, AROCLOR 1254 (30%), Method: PREINCUBATION",inactive; negative
same,mutagenic call,"Test System: AMES SALMONELLA TYPHIMURIUM, Strain/Indicator: TA98, Metabolic Activation: NONE, Method: PREINCUBATION",inactive; negative
same,mutagenic call,"Test System: AMES SALMONELLA TYPHIMURIUM, Strain/Indicator: TA98, Metabolic Activation: RAT, LIVER, S-9, AROCLOR 1254 (10%), Method: PREINCUBATION",inactive; negative
same,mutagenic call,"Test System: AMES SALMONELLA TYPHIMURIUM, Strain/Indicator: TA98, Metabolic Activation: RAT, LIVER, S-9, AROCLOR 1254 (30%), Method: PREINCUBATION",inactive; negative
same,mutagenic call,"Test System: AMES SALMONELLA TYPHIMURIUM, Strain/Indicator: TA100, Metabolic Activation: HAMSTER, LIVER, S-9, AROCLOR 1254 (10%), Method: PREINCUBATION",inactive; negative
same,mutagenic call,"Test System: AMES SALMONELLA TYPHIMURIUM, Strain/Indicator: TA100, Metabolic Activation: HAMSTER, LIVER, S-9, AROCLOR 1254 (30%), Method: PREINCUBATION",inactive; negative
same,mutagenic call,[1],inactive; negative
same,mutagenic call,"Test System: AMES SALMONELLA TYPHIMURIUM, Strain/Indicator: TA100, Metabolic Activation: RAT, LIVER, S-9, AROCLOR 1254 (10%), Method: PREINCUBATION",inactive; negative
same,mutagenic call,"Test System: AMES SALMONELLA TYPHIMURIUM, Strain/Indicator: TA100, Metabolic Activation: RAT, LIVER, S-9, AROCLOR 1254 (30%), Method: PREINCUBATION",inactive; negative
same,mutagenic call,"Test System: AMES SALMONELLA TYPHIMURIUM, Strain/Indicator: TA1535, Metabolic Activation: HAMSTER, LIVER, S-9, AROCLOR 1254 (10%), Method: PREINCUBATION",inactive; negative
same,mutagenic call,"Test System: AMES SALMONELLA TYPHIMURIUM, Strain/Indicator: TA1535, Metabolic Activation: HAMSTER, LIVER, S-9, AROCLOR 1254 (30%), Method: PREINCUBATION",inactive; negative
same,mutagenic call,"Test System: AMES SALMONELLA TYPHIMURIUM, Strain/Indicator: TA1535, Metabolic Activation: NONE, Method: PREINCUBATION",inactive; negative
same,mutagenic call,"Test System: AMES SALMONELLA TYPHIMURIUM, Strain/Indicator: TA1535, Metabolic Activation: RAT, LIVER, S-9, AROCLOR 1254 (10%), Method: PREINCUBATION",inactive; negative
same,mutagenic call,"Test System: AMES SALMONELLA TYPHIMURIUM, Strain/Indicator: TA1535, Metabolic Activation: RAT, LIVER, S-9, AROCLOR 1254 (30%), Method: PREINCUBATION",inactive; negative
